Test results reported in US12398154B2, “Azaquinazoline pan-KRas inhibitors” (Mirati Therapeutics, Inc., priority 2020, dated 2025).

Tests used:
KRas G12C = KRas G12C (Homo sapiens, UniProt P01116, G12C); test: biochemical;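 further: binding to KRas assessed by TR-FRET displacement after one hour incubation at room temperature, potency fitted from percent-of-control values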
Procedure: (§1) The ability of a compound to bind to KRas was measured using a TR-FRET displacement assay. […] After a 60-minute incubation at room temperature, the reaction was measured using a BMG LABTECH CLARIO star Plus via TR-FRET. […] The POC values were fit to a 4-parameter IC50 equation and the IC50 value reported.

KRas WT = KRas WT (Homo sapiens, UniProt P01116); test: biochemical;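 further: binding to KRas read as TR-FRET displacement after a one-hour room-temperature incubation, IC50 derived from percent-of-control values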
Chain of KRas WT (P01116 1-169 isoform P01116-2): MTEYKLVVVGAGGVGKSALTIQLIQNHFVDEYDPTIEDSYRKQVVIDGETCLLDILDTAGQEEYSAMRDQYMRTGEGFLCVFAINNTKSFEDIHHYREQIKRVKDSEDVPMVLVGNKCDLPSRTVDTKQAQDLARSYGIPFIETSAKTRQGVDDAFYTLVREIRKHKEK
Procedure: as §1

KRas G13D = molecular target: T1, KRas G13D (Homo sapiens, UniProt P01116, G13D); test: KRas binding assay (TR-FRET displacement);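 further: One-hour room temperature incubation before TR-FRET reading, IC50 from a four-parameter curve fit to percent-of-control data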
T1 construct: Biotinylated KRas (corresponding to amino acids 1-169, produced at Accelegan Inc.); biotin (biotinylated); purchased Accelegan Inc
T1 sequence (P01116 1-169 isoform P01116-2 G13D): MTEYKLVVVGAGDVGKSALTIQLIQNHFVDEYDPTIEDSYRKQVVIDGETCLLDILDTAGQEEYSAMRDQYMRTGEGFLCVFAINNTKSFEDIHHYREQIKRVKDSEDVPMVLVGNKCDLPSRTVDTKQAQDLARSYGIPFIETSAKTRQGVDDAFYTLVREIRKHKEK
Procedure: as §1

KRas G12R = KRas G12R (Homo sapiens, UniProt P01116, G12R); test: biochemical;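 further: TR-FRET displacement assay of compound binding to KRas, read after one hour at room temperature, potency from a four-parameter fit of percent-of-control values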
Chain of KRas G12R (P01116 1-169 isoform P01116-2 G12R): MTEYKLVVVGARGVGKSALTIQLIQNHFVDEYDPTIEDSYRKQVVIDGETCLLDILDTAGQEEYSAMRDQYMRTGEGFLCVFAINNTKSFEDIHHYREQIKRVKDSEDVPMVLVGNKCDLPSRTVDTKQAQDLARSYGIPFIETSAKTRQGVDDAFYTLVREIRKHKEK
Procedure: as §1

KRas G12D = KRas G12D (Homo sapiens, UniProt P01116, G12D); test: biochemical;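 further: TR-FRET displacement binding assay on KRas, read after a one-hour incubation at room temperature, IC50 fitted from percent-of-control values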
Chain of KRas G12D (P01116 1-169 isoform P01116-2 G12D): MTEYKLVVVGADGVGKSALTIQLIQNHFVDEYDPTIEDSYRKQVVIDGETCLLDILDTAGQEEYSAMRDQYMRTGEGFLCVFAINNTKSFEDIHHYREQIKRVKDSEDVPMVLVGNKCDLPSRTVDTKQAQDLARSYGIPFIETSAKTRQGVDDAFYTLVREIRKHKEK
Procedure: as §1

KRas G12A = KRas G12A (Homo sapiens, UniProt P01116, G12A); test: biochemical;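 further: binding to KRas measured by TR-FRET displacement after one hour at room temperature, IC50 from a four-parameter fit of percent-of-control values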
Chain of KRas G12A (P01116 1-169 isoform P01116-2 G12A): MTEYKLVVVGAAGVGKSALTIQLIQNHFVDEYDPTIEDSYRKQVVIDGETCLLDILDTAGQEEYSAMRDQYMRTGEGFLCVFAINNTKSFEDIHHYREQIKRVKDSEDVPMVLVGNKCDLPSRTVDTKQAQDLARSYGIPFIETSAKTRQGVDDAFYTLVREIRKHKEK
Procedure: as §1

KRas G12S = KRas G12S (Homo sapiens, UniProt P01116, G12S); test: biochemical;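 further: TR-FRET displacement binding to KRas, read after one hour incubation at room temperature, IC50 from four-parameter fit of percent of control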
Chain of KRas G12S (P01116 1-169 isoform P01116-2 G12S): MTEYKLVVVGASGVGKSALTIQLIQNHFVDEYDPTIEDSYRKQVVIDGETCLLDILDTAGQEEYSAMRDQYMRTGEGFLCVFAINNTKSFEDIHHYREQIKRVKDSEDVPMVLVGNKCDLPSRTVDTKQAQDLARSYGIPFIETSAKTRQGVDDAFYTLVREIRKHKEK
Procedure: as §1

KRas Q61H = molecular target: T2, KRas Q61H (Homo sapiens, UniProt P01116, Q61H); test: KRas binding assay (TR-FRET displacement);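 further: TR-FRET signal read after one hour at room temperature, IC50 derived by four-parameter fitting of percent-of-control values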
T2 construct: Biotinylated KRas (corresponding to amino acids 1-169, produced at Accelegan Inc.); biotin (biotinylated); purchased Accelegan Inc
T2 sequence (P01116 1-169 isoform P01116-2 Q61H): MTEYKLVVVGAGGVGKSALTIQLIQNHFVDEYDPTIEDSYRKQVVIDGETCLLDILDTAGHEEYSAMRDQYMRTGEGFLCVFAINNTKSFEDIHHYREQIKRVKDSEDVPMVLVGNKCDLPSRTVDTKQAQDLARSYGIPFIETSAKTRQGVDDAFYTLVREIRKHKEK
Procedure: as §1

KRas G12V = KRas G12V (Homo sapiens, UniProt P01116, G12V); test: biochemical;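 further: KRas binding measured by TR-FRET displacement at room temperature, IC50 fitted from percent of control values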
Chain of KRas G12V (P01116 1-169 isoform P01116-2 G12V): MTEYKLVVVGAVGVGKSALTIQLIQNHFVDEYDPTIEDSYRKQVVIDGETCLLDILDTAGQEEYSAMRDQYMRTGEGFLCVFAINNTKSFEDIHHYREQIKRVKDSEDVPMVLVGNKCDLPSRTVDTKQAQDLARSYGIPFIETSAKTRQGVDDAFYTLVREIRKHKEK
Procedure: as §1

Chain of KRas G12C (P01116 1-169 isoform P01116-2 G12C): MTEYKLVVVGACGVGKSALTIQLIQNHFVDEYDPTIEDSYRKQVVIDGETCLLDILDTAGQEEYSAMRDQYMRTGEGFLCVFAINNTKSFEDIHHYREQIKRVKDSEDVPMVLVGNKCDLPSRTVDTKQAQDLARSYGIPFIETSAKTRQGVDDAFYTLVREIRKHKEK

Structure (SMILES)	IC50 (KRas G12C) [µM]	IC50 (KRas WT) [µM]	IC50 (KRas G13D) [nM]	IC50 (KRas G12R) [µM]	IC50 (KRas G12D) [µM]	IC50 (KRas G12A) [µM]	IC50 (KRas G12S) [µM]	IC50 (KRas Q61H) [nM]	IC50 (KRas G12V) [µM]
OCC1CCCCN(c2nc(OCC34CCCN3CCC4)nc3c(F)c(-c4cccc5cccc(F)c45)ncc23)C1 (stereo not drawn) [Example 130, (1-(8-fluoro-7-(8-fluoronaphthalen-1-yl)-2-((tetrahydro-1H-pyrrolizin-7a(5H)-yl)methoxy)pyrido[4,3-d]pyrimidin-4-yl)azepan-3-yl)methanol]	9.08	11.4	25800	18.3	8.36	10.5	14.2	21900	10.8
Fc1c(-c2cccc3cccc(F)c23)ncc2c(N3CCCC(c4cc[nH]n4)C3)nc(OCC34CCCN3CCC4)nc12 (stereo not drawn) [Example 131, 4-(3-(1H-pyrazol-3-yl)piperidin-1-yl)-8-fluoro-7-(8-fluoronaphthalen-1-yl)-2-((tetrahydro-1H-pyrrolizin-7a(5H)-yl)methoxy)pyrido[4,3-d]pyrimidine]	3.45	8.21	6560	2.79	14.6	4.46	9.29	7690	8.3
Cc1cc2[nH]ncc2c(-c2ncc3c(N4CCCC(C)(O)C4)nc(OCC45CCCN4CCC5)nc3c2F)c1C1CC1 (stereo not drawn) [Example 144, 1-(7-(5-cyclopropyl-6-methyl-1H-indazol-4-yl)-8-fluoro-2-((tetrahydro-1H-pyrrolizin-7a(5H)-yl)methoxy)pyrido[4,3-d]pyrimidin-4-yl)-3-methylpiperidin-3-ol]	0.077	0.074	60	0.096	0.043	0.071	0.065	82	0.048
O=C1NC(=O)C2(CCCN(c3nc(OCC45CCCN4CCC5)nc4c(F)c(-c5cccc6cccc(F)c56)ncc34)C2)N1 (stereo not drawn) [Example 158, 7-(8-fluoro-7-(8-fluoronaphthalen-1-yl)-2-((hexahydro-1H-pyrrolizin-7a-yl)methoxy)pyrido[4,3-d]pyrimidin-4-yl)-1,3,7-triazaspiro[4.5]decane-2,4-dione]	0.041	0.103	83	0.081	0.152	0.085	0.069	102	0.078
CCc1cccc2cccc(-c3ncc4c(NCc5cccnc5N)nc(OCC56CCCN5CCC6)nc4c3F)c12 [Example 204, N-((2-aminopyridin-3-yl)methyl)-7-(8-ethylnaphthalen-1-yl)-8-fluoro-2-((hexahydro-1H-pyrrolizin-7a-yl)methoxy)pyrido[4,3-d]pyrimidin-4-amine]	0.02	0.233	317	0.021	1.29	0.038	0.051	283	0.043
CCc1cccc2cccc(-c3ncc4c(NCc5c[nH]c6ncccc56)nc(OCC56CCCN5CCC6)nc4c3F)c12 [Example 205, N-((1H-pyrrolo[2,3-b]pyridin-3-yl)methyl)-7-(8-ethylnaphthalen-1-yl)-8-fluoro-2-((hexahydro-1H-pyrrolizin-7a-yl)methoxy)pyrido[4,3-d]pyrimidin-4-amine]	0.01	0.08	69	0.007	0.307	0.013	0.016	95	0.008
Fc1c(-c2cccc3cccc(F)c23)ncc2c(OCCCc3cccnc3)nc(OCC34CCCN3CCC4)nc12 [Example 207, 8-fluoro-7-(8-fluoronaphthalen-1-yl)-4-(3-(pyridin-3-yl)propoxy)-2-((tetrahydro-1H-pyrrolizin-7a(5H)-yl)methoxy)pyrido[4,3-d]pyrimidine]	11.8	26.7	30400	13.1	17.3	18.1	46.2	46400	6.17
Fc1c(-c2cccc3cccc(F)c23)ncc2c(NCc3ccc4nccn4c3)nc(OCC34CCCN3CCC4)nc12 [Example 208, 8-fluoro-7-(8-fluoronaphthalen-1-yl)-N-(imidazo[1,2-a]pyridin-6-ylmethyl)-2-((tetrahydro-1H-pyrrolizin-7a(5H)-yl)methoxy)pyrido[4,3-d]pyrimidin-4-amine]	0.677	4.01	6250	0.494	17.4	1.3	2.26	7150	0.824
N#Cc1cccnc1N1CCN(c2nc(OCC34CCCN3CCC4)nc3c(F)c(-c4cccc5cccc(F)c45)ncc23)CC1 [Example 209, 2-(4-(8-fluoro-7-(8-fluoronaphthalen-1-yl)-2-((tetrahydro-1H-pyrrolizin-7a(5H)-yl)methoxy)pyrido[4,3-d]pyrimidin-4-yl)piperazin-1-yl)nicotinonitrile]	2.52	4.96	13300	1.61	63.4	3.7	10.1	12700	2.35
Fc1c(-c2cccc3cccc(F)c23)ncc2c(Nc3cnn(-c4ccncc4)c3)nc(OCC34CCCN3CCC4)nc12 [Example 210, 8-fluoro-7-(8-fluoronaphthalen-1-yl)-N-(1-(pyridin-4-yl)-1H-pyrazol-4-yl)-2-((tetrahydro-1H-pyrrolizin-7a(5H)-yl)methoxy)pyrido[4,3-d]pyrimidin-4-amine]	43.3	≥ 100	≥ 100000	37.8	≥ 100	66.5	≥ 100	≥ 100000	2.94

Second part, the molecule after the results:

IC50 (KRas G12C) [µM]	IC50 (KRas WT) [µM]	IC50 (KRas G13D) [nM]	IC50 (KRas G12R) [µM]	IC50 (KRas G12D) [µM]	IC50 (KRas G12A) [µM]	IC50 (KRas G12S) [µM]	IC50 (KRas Q61H) [nM]	IC50 (KRas G12V) [µM]	Structure (SMILES)
10.4	16.9	20200	8.03	≥ 100	12.2	18.7	29800	14.7	Fc1c(-c2cccc3cccc(F)c23)ncc2c(NCCNc3cccnc3)nc(OCC34CCCN3CCC4)nc12 [Example 211, N1-(8-fluoro-7-(8-fluoronaphthalen-1-yl)-2-((tetrahydro-1H-pyrrolizin-7a(5H)-yl)methoxy)pyrido[4,3-d]pyrimidin-4-yl)-N2-(pyridin-3-yl)ethane-1,2-diamine]
3.12	8.36	10100	0.88	15.6	2.83	6.45	17400	1.35	Fc1c(-c2cccc3cccc(F)c23)ncc2c(NCCc3c[nH]c4ncccc34)nc(OCC34CCCN3CCC4)nc12 [Example 212, N-(2-(1H-pyrrolo[2,3-b]pyridin-3-yl)ethyl)-8-fluoro-7-(8-fluoronaphthalen-1-yl)-2-((tetrahydro-1H-pyrrolizin-7a(5H)-yl)methoxy)pyrido[4,3-d]pyrimidin-4-amine]
4.2	16.8	20500	4.25	≥ 100	6.19	7.25	17700	5.57	Fc1c(-c2cccc3cccc(F)c23)ncc2c(N3CC(c4ccncc4)C3)nc(OCC34CCCN3CCC4)nc12 [Example 213, 8-fluoro-7-(8-fluoronaphthalen-1-yl)-4-(3-(pyridin-4-yl)azetidin-1-yl)-2-((tetrahydro-1H-pyrrolizin-7a(5H)-yl)methoxy)pyrido[4,3-d]pyrimidine]
9.59	60	95100	16.4	≥ 100	28.8	34.6	81100	12.6	Fc1c(-c2cccc3cccc(F)c23)ncc2c(NCc3cnn4cccnc34)nc(OCC34CCCN3CCC4)nc12 [Example 214, 8-fluoro-7-(8-fluoronaphthalen-1-yl)-N-(pyrazolo[1,5-a]pyrimidin-3-ylmethyl)-2-((tetrahydro-1H-pyrrolizin-7a(5H)-yl)methoxy)pyrido[4,3-d]pyrimidin-4-amine]
17.8	34	47100	8.95	≥ 100	26.1	23.5	57500	17	Fc1c(-c2cccc3cccc(F)c23)ncc2c(NCCc3ccn[nH]3)nc(OCC34CCCN3CCC4)nc12 [Example 215, N-(2-(1H-pyrazol-5-yl)ethyl)-8-fluoro-7-(8-fluoronaphthalen-1-yl)-2-((tetrahydro-1H-pyrrolizin-7a(5H)-yl)methoxy)pyrido[4,3-d]pyrimidin-4-amine]
6.3	30.9	59000	2.57	≥ 100	13.8	41	83200	17.9	N#Cc1ccccc1N1CCN(c2nc(OCC34CCCN3CCC4)nc3c(F)c(-c4cccc5cccc(F)c45)ncc23)CC1 [Example 216, 2-(4-(8-fluoro-7-(8-fluoronaphthalen-1-yl)-2-((tetrahydro-1H-pyrrolizin-7a(5H)-yl)methoxy)pyrido[4,3-d]pyrimidin-4-yl)piperazin-1-yl)benzonitrile]
